Test results as given in ChEMBL document CHEMBL1201862, “PubChem BioAssay data set” (2004).
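Values below derive from 48-hour exposures of cells grown in 96-well plates, with endpoints linearly interpolated between the two concentrations bracketing the appropriate inhibition level. GI50 = concentration required for 50% inhibition of growth.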 Activity calls are given as the source filed them. Rule as the data show it: active = GI50 up to about 1.1 µM and inactive = higher. Where a SMILES comes first, the peptide text is derived from it. [ ]: non-standard residue; d: D form. The star is where a group is joined. NMeF = CN[C@@H](Cc1ccccc1)C(=O)O; NMeV = CN[C@H](C(=O)O)C(C)C; Boc = CC(C)(C)OC(=O)*; OBn = c1ccc(CO*)cc1

What was measured:
Assay in all cases: NCI tumour cell line growth inhibition, 48 h
A498 = test system: A498
EKVX = test system: EKVX
SK-MEL-5 = test system: SK-MEL-5
UACC-62 = test system: UACC-62
M14 = test system: M14
SN12C = test system: SN12C
786-0 = test system: 786-0
MOLT-4 = test system: MOLT-4
HOP-62 = test system: HOP-62
ACHN = test system: ACHN
OVCAR-4 = test system: OVCAR-4
U-251 = test system: U-251
SNB-19 = test system: SNB-19
MDA-N = test system: MDA-N
K562 = test system: K562
SF-268 = test system: SF-268
RPMI-8226 = test system: RPMI-8226
HT-29 = test system: HT-29
NCI/ADR-RES = test system: NCI/ADR-RES
UACC-257 = test system: UACC-257

SMILES | GI50 (A498) | GI50 (EKVX) | GI50 (SK-MEL-5) | GI50 (UACC-62) | GI50 (M14) | GI50 (SN12C) | GI50 (786-0) | GI50 (MOLT-4) | GI50 (HOP-62) | GI50 (ACHN) | GI50 (OVCAR-4) | GI50 (U-251) | GI50 (SNB-19) | GI50 (MDA-N) | GI50 (K562) | GI50 (SF-268) | GI50 (RPMI-8226) | GI50 (HT-29) | GI50 (NCI/ADR-RES) | GI50 (UACC-257)
C=C(Cl)C(Cl)(CCl)CCC(Br)C(C)(C)Br (centres undefined) | > 10 µM (inactive) | > 10 µM (inactive) | > 10 µM (inactive) | > 10 µM (inactive) | > 10 µM (inactive) | > 10 µM (inactive) | > 10 µM (inactive) | > 10 µM (inactive) | > 10 µM (inactive) | > 10 µM (inactive) | > 10 µM (inactive) | > 10 µM (inactive) | > 10 µM (inactive) | > 10 µM (inactive) | > 10 µM (inactive) | > 10 µM (inactive) | > 10 µM (inactive) | > 10 µM (inactive) | – | –
C/C(=N\NC(=S)N1CCCCCC1)c1cccc2cccnc12 | 5.64 µM (inactive) | 1.29 µM (inactive) | – | – | 1.55 µM (inactive) | – | 2.01 µM (inactive) | 0.134 µM (active) | 1.15 µM (inactive) | 0.375 µM (active) | – | 0.839 µM (active) | 1.76 µM (inactive) | – | 0.131 µM (active) | 4.29 µM (inactive) | 0.109 µM (active) | 1.4 µM (inactive) | 1.03 µM (active) | 2.58 µM (inactive)
CN(CCS(=O)(=O)N1C(=O)C2CCCN2C(=O)[C@@H]1Cc1ccccc1)C(=O)OCc1ccccc1 (some centres undefined) | 35.5 µM (inactive) | 30.9 µM (inactive) | 25.8 µM (inactive) | 38.8 µM (inactive) | 45.6 µM (inactive) | 91.6 µM (inactive) | > 100 µM (inactive) | 16.5 µM (inactive) | > 100 µM (inactive) | 28.3 µM (inactive) | 68.4 µM (inactive) | 56.2 µM (inactive) | 41.6 µM (inactive) | – | 33.4 µM (inactive) | 61.1 µM (inactive) | 15.1 µM (inactive) | 47.4 µM (inactive) | – | 69 µM (inactive)
Cc1cccc(C(C)C)c1NC(=O)C(=O)CC(=O)c1sc(Nc2ccccc2Cl)nc1C | > 100 µM (inactive) | 52.2 µM (inactive) | 13.5 µM (inactive) | 42.4 µM (inactive) | 19.5 µM (inactive) | 64.9 µM (inactive) | 32.8 µM (inactive) | 25.6 µM (inactive) | > 100 µM (inactive) | 51.4 µM (inactive) | 83.4 µM (inactive) | 23.1 µM (inactive) | 56.4 µM (inactive) | 9.79 µM (inactive) | > 10 µM (inactive) | 58.2 µM (inactive) | 13.3 µM (inactive) | – | – | 54.5 µM (inactive)
N#Cc1ccc(C(O)C(F)(F)c2nc3ccccc3o2)cc1 (centres undefined) | – | > 100 µM (inactive) | 37.2 µM (inactive) | 40.9 µM (inactive) | 55.2 µM (inactive) | – | 84.1 µM (inactive) | 29.2 µM (inactive) | > 100 µM (inactive) | 83.9 µM (inactive) | 95.5 µM (inactive) | > 100 µM (inactive) | > 100 µM (inactive) | – | 18.2 µM (inactive) | > 100 µM (inactive) | 31.2 µM (inactive) | 81.3 µM (inactive) | 60.5 µM (inactive) | 99.8 µM (inactive)
CN(C)CCN(C)CCC(=O)/C=C/c1ccccc1 | > 89.9 µM (inactive) | 32.1 µM (inactive) | > 44.5 µM (inactive) | 25.4 µM (inactive) | 20.9 µM (inactive) | 19 µM (inactive) | 15.6 µM (inactive) | 7.26 µM (inactive) | > 100 µM (inactive) | 29.5 µM (inactive) | 38.2 µM (inactive) | 57.7 µM (inactive) | > 93.3 µM (inactive) | – | 12.7 µM (inactive) | 30.5 µM (inactive) | 2.16 µM (inactive) | 20.8 µM (inactive) | – | 22.2 µM (inactive)
N#CCCN(C1=NN(C(=O)CC(=O)Nc2ccc(Cl)cc2)C(c2ccccc2)C1)c1ccc(Cl)cc1 (centres undefined) | > 100 µM (inactive) | > 100 µM (inactive) | > 100 µM (inactive) | > 100 µM (inactive) | > 100 µM (inactive) | > 100 µM (inactive) | > 100 µM (inactive) | > 100 µM (inactive) | > 100 µM (inactive) | > 100 µM (inactive) | > 100 µM (inactive) | > 100 µM (inactive) | > 100 µM (inactive) | – | > 100 µM (inactive) | > 100 µM (inactive) | > 100 µM (inactive) | > 100 µM (inactive) | – | > 100 µM (inactive)
CNc1ccccc1S(=O)(=O)c1ccccc1[N+](=O)[O-] | > 100 µM (inactive) | > 100 µM (inactive) | 23 µM (inactive) | 48.8 µM (inactive) | 52.7 µM (inactive) | 92.7 µM (inactive) | > 100 µM (inactive) | 30.8 µM (inactive) | > 100 µM (inactive) | 56.6 µM (inactive) | 27.2 µM (inactive) | 69.7 µM (inactive) | 74 µM (inactive) | – | 42.6 µM (inactive) | > 100 µM (inactive) | > 100 µM (inactive) | 93.8 µM (inactive) | 45.5 µM (inactive) | –
O=C1CCCCCCCCCCC(=O)N2CCOCCOCCN1Cc1cccc(n1)C2 | > 100 µM (inactive) | > 100 µM (inactive) | 61.5 µM (inactive) | > 100 µM (inactive) | > 100 µM (inactive) | > 100 µM (inactive) | > 100 µM (inactive) | 39.6 µM (inactive) | > 100 µM (inactive) | > 100 µM (inactive) | > 100 µM (inactive) | > 100 µM (inactive) | > 100 µM (inactive) | – | 81.1 µM (inactive) | > 100 µM (inactive) | 36.1 µM (inactive) | > 100 µM (inactive) | – | > 100 µM (inactive)
O=C(NN1C(=O)C(Cl)C1c1ccc(Cl)cc1)c1c(Cl)c(Cl)c(Cl)c(Cl)c1-c1nc2ccccc2[nH]1 (centres undefined) | 24.8 µM (inactive) | 20.7 µM (inactive) | 26.4 µM (inactive) | 15.7 µM (inactive) | 20.8 µM (inactive) | 23 µM (inactive) | 16.5 µM (inactive) | 7.33 µM (inactive) | 40.2 µM (inactive) | 18.9 µM (inactive) | – | – | 36.1 µM (inactive) | – | 20.1 µM (inactive) | 25.8 µM (inactive) | – | 25.2 µM (inactive) | 33 µM (inactive) | 25.2 µM (inactive)
O=C(COc1ccc(Br)cc1Br)N1N=C(c2ccc([N+](=O)[O-])o2)CC1(O)c1ccccc1 (centres undefined) | 10.2 µM (inactive) | 2.79 µM (inactive) | 5.45 µM (inactive) | 4.95 µM (inactive) | 10.1 µM (inactive) | 12.2 µM (inactive) | 15.6 µM (inactive) | 2.64 µM (inactive) | 13.2 µM (inactive) | 15.3 µM (inactive) | 17 µM (inactive) | 8.73 µM (inactive) | 19.3 µM (inactive) | – | 4.7 µM (inactive) | 12.3 µM (inactive) | 2.11 µM (inactive) | 13.4 µM (inactive) | – | 23.1 µM (inactive)
Oc1cccc(-c2cc(=S)ss2)c1 | – | 16.1 µM (inactive) | 5.97 µM (inactive) | 18.5 µM (inactive) | 20.6 µM (inactive) | 20.2 µM (inactive) | 19.7 µM (inactive) | 3.22 µM (inactive) | 17.6 µM (inactive) | 15.7 µM (inactive) | 18.6 µM (inactive) | 14.8 µM (inactive) | 19.7 µM (inactive) | – | 8.57 µM (inactive) | 16.9 µM (inactive) | 2.24 µM (inactive) | 24.7 µM (inactive) | 17.5 µM (inactive) | 14.9 µM (inactive)
C/C(=C\COP(=O)(O)CP(=O)(O)O)CC/C=C(\C)CNc1ccccc1 | – | 15.7 µM (inactive) | > 100 µM (inactive) | > 100 µM (inactive) | > 100 µM (inactive) | > 100 µM (inactive) | > 100 µM (inactive) | > 100 µM (inactive) | > 100 µM (inactive) | > 100 µM (inactive) | – | > 100 µM (inactive) | > 100 µM (inactive) | – | > 100 µM (inactive) | > 100 µM (inactive) | > 100 µM (inactive) | > 100 µM (inactive) | > 100 µM (inactive) | > 100 µM (inactive)
CC(=O)OC(C)(C)[C@@H]1CC[C@]2(C)/C=C/[C@H](C)C[C@@H](O)C3=C(C)C[C@@H](O3)C12 (some centres undefined) | > 100 µM (inactive) | > 100 µM (inactive) | > 100 µM (inactive) | > 100 µM (inactive) | > 100 µM (inactive) | > 100 µM (inactive) | > 100 µM (inactive) | > 100 µM (inactive) | > 100 µM (inactive) | > 100 µM (inactive) | > 100 µM (inactive) | > 100 µM (inactive) | > 100 µM (inactive) | – | > 100 µM (inactive) | > 100 µM (inactive) | > 100 µM (inactive) | > 100 µM (inactive) | – | > 100 µM (inactive)
CC(C)[C@@H](C(=O)N1CCC[C@H]1C(=O)OCc1ccccc1)N(C)C(=O)[C@H](C(C)C)N(C)C(=O)[C@H](Cc1ccccc1)N(C)C(=O)[C@H](NC(=O)OC(C)(C)C)C(C)C (Boc-[dV][NMeF][NMeV][NMeV]P-OBn) | > 50 µM (inactive) | > 50 µM (inactive) | > 50 µM (inactive) | > 50 µM (inactive) | > 50 µM (inactive) | > 50 µM (inactive) | > 50 µM (inactive) | > 50 µM (inactive) | > 50 µM (inactive) | > 50 µM (inactive) | > 50 µM (inactive) | > 50 µM (inactive) | > 50 µM (inactive) | – | > 50 µM (inactive) | > 50 µM (inactive) | > 50 µM (inactive) | > 50 µM (inactive) | > 50 µM (inactive) | > 50 µM (inactive)
